In one experiment the test system is Staphylococcus aureus. Kind of experiment: Antimicrobial activity against Staphylococcus aureus at 100 ug/disk. The experiment is classed as functional, organism-based.
The test system of a further experiment is Bacillus subtilis. Kind of experiment: Antimicrobial activity against Bacillus subtilis at 100 ug/disk. The experiment is classed as functional, organism-based.

Activity calls are given as the source filed them. The calls are words filed in the database; no cut-off is given here.

Take `COc1c(Br)cc(C/C(=N\O)C(=O)NCCCOc2ccc(CCN)cc2Br)cc1Br`: the outcome with Staphylococcus aureus and with Bacillus subtilis was Active.

As to `COC1=C(Br)[C@H](O)[C@@]2(C=C1Br)CC(C(=O)NCCCOc1ccc(CCN)cc1Br)=NO2`, the result in the experiment with Staphylococcus aureus and in the experiment with Bacillus subtilis was Active.

Source of the values: ChEMBL document CHEMBL1150194, “Two new brominated tyrosine derivatives from the sponge Druinella (= Psammaplysilla) purpurea” (J Nat Prod, 1991).
